Measurements as given in US20020019536A1, “NEW URETHANES, THIO AND DITHIO ANALOGUES AND THEIR USE AS INHIBITORS OF CHOLESTEROL BIOSYNTHESIS” (priority 1997, published 2002).
Values after ≈ are worked out from the molar mass of the structure shown.

Experiments:
[1] = tested on: Cand. albicans ATCC 10231; assay: Fungistatic activity, series dilution test; format: cell-based; details: Sabouraud broth, 2 to 4 days at 26° C.
Method: (§1) V. Determining the Fungistatic Activity
(§2) The fungistatic activity was determined by the series dilution test (microtitre system). Sabouraud broth was used as the nutrient medium. The inoculum amounted to about 10^4 to 10^5 CFU/ml (CFU=colony-forming units); the incubation period was 2 to 4 days at 26° C.
(§3) The lowest concentration which allows no visible growth (minimum inhibitory concentration MIC) was determined.
(§4) The abovementioned compounds B, E, G, I, K, L, N, Q and R were tested. The MIC is given in μg/ml.

[2] = tested on: Trich. mentagrophytes ATCC 9129; assay: Fungistatic activity, series dilution test; format: cell-based; details: Sabouraud broth, 2 to 4 days at 26° C.
Method: as §1, §2, §3, §4

[3] = tested on: Sacch. carisbergensis ATCC 9080; assay: Fungistatic activity, series dilution test; format: cell-based; details: Sabouraud broth, 2 to 4 days at 26° C.
Method: as §1, §2, §3, §4

Rhod. rubra 49 = assay: Fungistatic activity, series dilution test; format: cell-based; details: Sabouraud broth, 2 to 4 days at 26° C.
Method: as §1, §2, §3, §4

Pen. notatum CBS 19746 = assay: Fungistatic activity, series dilution test; format: cell-based; details: Sabouraud broth, 2 to 4 days at 26° C.
Method: as §1, §2, §3, §4

Asp. niger ATCC 16404 = assay: Fungistatic activity, series dilution test; format: cell-based; details: Sabouraud broth, 2 to 4 days at 26° C.
Method: as §1, §2, §3, §4

[4] = Lipid reduction in the normolipaemic golden hamster; format: in vivo; details: compared with control group
Method: III. Lipid Reduction in the Normolipaemic Golden Hamster This was determined using the method described in J. Lipid. Res. 38, 564-575, (1997). At the end of the experiment the total cholesterol, β-lipoprotein-cholesterol and HDL-cholesterol were determined and compared with the values of a control group which were fed without any test substance. The lipid-lowering activity of the abovementioned compounds E, G and I was tested.

[5] = tested on: 14C-acetate incorporation into the steroids which can be precipitated with digitonin (cholesterol biosynthesis); assay: Inhibition of 14C-acetate incorporation into the steroids which can be precipitated with digitonin; format: cell-based; details: for IC50: 14C-acetate incorporation
Source text: I. Measuring the Inhibition of ^14C-acetate incorporation into the steroids which can be precipitated with digitonin: The inhibitory effect was investigated using the method described in J. Lipid. Res. 37, 148-157 [1996] at test concentrations of 10^−8 and 10^−9 mol/l.

[6] = biological target: T1, 2,3-epoxysqualene-lanosterol-cyclase (Rattus norvegicus, UniProt P48450); assay: In-vivo activity in the rat after oral administration: 2,3-epoxysqualene level in the liver
T1 construct: Measuring the in-vivo Activity in the Rat after Oral Administration; from tissue; host or cells: living rat; 2,3-epoxysqualene measured in the liver
T1 sequence (P48450 1-733): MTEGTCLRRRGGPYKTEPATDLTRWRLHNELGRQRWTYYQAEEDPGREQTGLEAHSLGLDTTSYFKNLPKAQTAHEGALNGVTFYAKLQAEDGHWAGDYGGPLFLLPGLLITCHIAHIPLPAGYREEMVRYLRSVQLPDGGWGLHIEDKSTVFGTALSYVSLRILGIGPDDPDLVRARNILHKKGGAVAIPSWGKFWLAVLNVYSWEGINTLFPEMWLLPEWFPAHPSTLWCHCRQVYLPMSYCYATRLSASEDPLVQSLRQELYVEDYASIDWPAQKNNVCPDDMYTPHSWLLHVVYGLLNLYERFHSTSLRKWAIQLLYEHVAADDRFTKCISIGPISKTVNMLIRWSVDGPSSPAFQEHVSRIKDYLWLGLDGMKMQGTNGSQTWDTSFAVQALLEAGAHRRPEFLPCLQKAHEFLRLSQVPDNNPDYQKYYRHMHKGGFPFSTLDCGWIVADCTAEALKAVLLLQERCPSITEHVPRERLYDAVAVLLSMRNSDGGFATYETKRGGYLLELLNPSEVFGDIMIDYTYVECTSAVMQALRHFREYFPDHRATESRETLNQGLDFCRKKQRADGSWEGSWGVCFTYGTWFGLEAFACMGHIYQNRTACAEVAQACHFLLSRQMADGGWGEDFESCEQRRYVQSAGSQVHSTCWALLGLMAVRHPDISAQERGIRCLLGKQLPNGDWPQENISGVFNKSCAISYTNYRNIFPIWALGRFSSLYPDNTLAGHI
Method: II. Measuring the in-vivo Activity in the Rat after Oral Administration
Inhibiting the enzyme 2,3-epoxysqualene-lanosterol-cyclase causes an increase in the 2,3-epoxisqualene levels in the liver and plasma. The quantity of 2,3-epoxysqualene formed therefore serves as a direct measurement of the potency on the animal as a whole. The amounts were determined using the method described in J. Lipid. Res. 38, 564-575, [1997] at t=3 or 8 hours after administration of the substance in concentrations of c=0.01, 0.03, 0.1, 0.3 and 1.0 mg/kg. Table 3 which follows gives the results obtained for the abovementioned substances A, B, C, E, G, H, O and R by way of example.
In the control animals there were no measurable 2,3-epoxisqualene levels under these conditions.

[7] = 0.01 mg/kg oral, 3 h after administration
[8] = 0.01 mg/kg oral, 8 h after administration
[9] = 0.03 mg/kg oral, 3 h after administration
[10] = 0.03 mg/kg oral, 8 h after administration
[11] = 0.1 mg/kg oral, 3 h after administration
[12] = 0.1 mg/kg oral, 8 h after administration
[13] = 0.3 mg/kg oral, 3 h after administration
[14] = 0.3 mg/kg oral, 8 h after administration

| 2,3-epoxysqualene concentration in the liver (rat) [6, 9] [µg/g] | 2,3-epoxysqualene concentration in the liver (rat) [6, 10] [µg/g] | 2,3-epoxysqualene concentration in the liver (rat) [6, 11] [µg/g] | 2,3-epoxysqualene concentration in the liver (rat) [6, 12] [µg/g] | 2,3-epoxysqualene concentration in the liver (rat) [6, 13] [µg/g] | 2,3-epoxysqualene concentration in the liver (rat) [6, 14] [µg/g] | SMILES | MIC Cand. [1] [mg/L] | MIC Trich. [2] [mg/L] | MIC Sacc. [3] [mg/L] | MIC Rhod. (Rhod. rubra 49) [mg/L] | MIC Pen. (Pen. notatum CBS 19746) [mg/L] | MIC Asp. (Asp. niger ATCC 16404) [mg/L] | IC50 [5] [nM] | percentage inhibition of 14C-acetate incorporation ([5]; test concentration 10^−8 mol/l) [%] | percentage inhibition of 14C-acetate incorporation ([5]; test concentration 10^−9 mol/l) [%] | 2,3-epoxysqualene concentration in the liver (rat) [6, 7] [µg/g] | 2,3-epoxysqualene concentration in the liver (rat) [6, 8] [µg/g] | other results |
| --- | --- | --- | --- | --- | --- | --- | --- | --- | --- | --- | --- | --- | --- | --- | --- | --- | --- | --- |
| 12.8 | 42.3 | 66.2 | 115.3 | 57.5 | 225.5 | CN(C)Cc1ccc([C@H]2CC[C@H](N(C)C(=S)Oc3ccc(Cl)cc3)CC2)cc1.Cl [G, trans-O-(4-chlorophenyl)-N-4-[4-(dimethylaminomethyl)-phenyl]cyclohexyl-N-methylthiocarbamate-hydrochloride] | 4 | 1 | 32 | 8 | 1 | 4 | 0.4 | −85 | −43 | 5.2 | 30.1 | HDL-cholesterol ([4]; dose 0.5 mg/kg/day): −21.1%; Total cholesterol ([4]; dose 0.5 mg/kg/day): −27.7%; β-Lipoprotein-cholesterol ([4]; dose 0.5 mg/kg/day): −40.2%; HDL-cholesterol ([4]; dose 1.5 mg/kg/day): −26.5%; Total cholesterol ([4]; dose 1.5 mg/kg/day): −31.1%; β-Lipoprotein-cholesterol ([4]; dose 1.5 mg/kg/day): −42.2%; HDL-cholesterol ([4]; dose 4.9 mg/kg/day): −24.3%; Total cholesterol ([4]; dose 4.9 mg/kg/day): −26.5%; β-Lipoprotein-cholesterol ([4]; dose 4.9 mg/kg/day): −33.2% |
| 24.5 | 57.1 | 96.0 | 150.9 | 98.5 | 234.5 | CN(C)Cc1ccc([C@H]2CC[C@H](N(C)C(=S)SCc3cccc(F)c3)CC2)cc1.Cl [B, trans-S-(3-fluorobenzyl)-N-4-[4-(dimethylaminomethyl)-phenyl]cyclohexyl-N-methyldithiocarbamate-hydrochloride] | 2 | 1 | 8 | 2 | 2 | 2 |  | −85 | −59 |  |  |  |
|  |  |  |  |  |  | C#CCN(C)Cc1ccc([C@H]2CC[C@H](N(C)C(=O)Oc3ccc(Cl)cc3)CC2)cc1 [N, trans-O-(4-chlorophenyl)-N-methyl-N-4-[4-(N-methyl-N-propargylaminomethyl)phenyl]cyclohexylcarbamate] | 8 (≈ 18.8 µM) | 8 (≈ 18.8 µM) | 64 (≈ 151 µM) | 16 (≈ 37.6 µM) | 8 (≈ 18.8 µM) | >512 |  | −90 | −75 |  |  |  |
|  |  |  |  |  |  | CCN(CC)Cc1ccc([C@H]2CC[C@H](N(C)C(=O)Oc3ccc(Cl)cc3)CC2)cc1.Cl [L, trans-O-(4-chlorophenyl)-N-4-[4-(diethylaminomethyl)-phenyl]cyclohexyl-N-methylcarbamate-hydrochloride] | 32 | 1 | 128 | 8 | 64 | 32 |  | −83 | −53 |  |  |  |
|  |  |  |  |  |  | CN(C(=O)Oc1ccc(Cl)cc1)[C@H]1CC[C@H](c2ccc(CN3CCCCC3)cc2)CC1.Cl [I, trans-O-(4-chlorophenyl)-N-methyl-N-4-[4-(piperidinomethyl)phenyl]cyclohexylcarbamate-hydrochloride] | 64 | 8 | 64 | 64 | 64 | 256 |  | −83 | −43 |  |  | HDL-cholesterol ([4]; dose 0.46 mg/kg/day): −3.3%; Total cholesterol ([4]; dose 0.46 mg/kg/day): −16.1%; β-Lipoprotein-cholesterol ([4]; dose 0.46 mg/kg/day): −26.2%; HDL-cholesterol ([4]; dose 1.34 mg/kg/day): −5.0%; Total cholesterol ([4]; dose 1.34 mg/kg/day): −20.2%; β-Lipoprotein-cholesterol ([4]; dose 1.34 mg/kg/day): −33.7%; HDL-cholesterol ([4]; dose 4.89 mg/kg/day): −16.2%; Total cholesterol ([4]; dose 4.89 mg/kg/day): −25.7%; β-Lipoprotein-cholesterol ([4]; dose 4.89 mg/kg/day): −36.1% |

| SMILES | 2,3-epoxysqualene concentration in the liver (rat) [6, 9] [µg/g] | 2,3-epoxysqualene concentration in the liver (rat) [6, 10] [µg/g] | 2,3-epoxysqualene concentration in the liver (rat) [6, 11] [µg/g] | 2,3-epoxysqualene concentration in the liver (rat) [6, 12] [µg/g] | 2,3-epoxysqualene concentration in the liver (rat) [6, 13] [µg/g] | 2,3-epoxysqualene concentration in the liver (rat) [6, 14] [µg/g] | MIC Cand. [1] [mg/L] | MIC Trich. [2] [mg/L] | MIC Sacc. [3] [mg/L] | MIC Rhod. (Rhod. rubra 49) [mg/L] | MIC Pen. (Pen. notatum CBS 19746) [mg/L] | MIC Asp. (Asp. niger ATCC 16404) [mg/L] | IC50 [5] [nM] | percentage inhibition of 14C-acetate incorporation ([5]; test concentration 10^−8 mol/l) [%] | percentage inhibition of 14C-acetate incorporation ([5]; test concentration 10^−9 mol/l) [%] | 2,3-epoxysqualene concentration in the liver (rat) [6, 7] [µg/g] | 2,3-epoxysqualene concentration in the liver (rat) [6, 8] [µg/g] | other results |
| --- | --- | --- | --- | --- | --- | --- | --- | --- | --- | --- | --- | --- | --- | --- | --- | --- | --- | --- |
| CN(C)Cc1ccc([C@H]2CC[C@H](N(C)C(=O)Oc3ccc(F)cc3)CC2)cc1.Cl [R, trans-N-4-[4-(dimethylaminomethyl)phenyl]cyclohexyl-O-(4-fluorophenyl)-N-methylcarbamate-hydrochloride] | 38.2 | 67.2 | 53.8 | 152.9 | 79.7 | 191.0 | 64 | 2 | 512 | 16 | 16 | 16 | 0.5 | −86 | −63 | 5.1 | 25.6 | HDL-cholesterol ([4]; dose 1.73 mg/kg/day): −19.7%; Total cholesterol ([4]; dose 1.73 mg/kg/day): −16.5%; β-Lipoprotein-cholesterol ([4]; dose 1.73 mg/kg/day): −14.3%; HDL-cholesterol ([4]; dose 6.37 mg/kg/day): −20.0%; Total cholesterol ([4]; dose 6.37 mg/kg/day): −27.8%; β-Lipoprotein-cholesterol ([4]; dose 6.37 mg/kg/day): −34.3%; 2,3-epoxysqualene concentration in the liver (rat) ([6]; 1.0 mg/kg oral, 3 h after administration): 106.2 µg/g; 2,3-epoxysqualene concentration in the liver (rat) ([6]; 1.0 mg/kg oral, 8 h after administration): 340.0 µg/g |
